Source: US9029168B2, “Use and making of biosensors utilizing antimicrobial peptides for highly sensitive biological monitoring” (priority 2010, dated 2015)

How the values were obtained:
E. coli O157:H7 cells = assay: Impedance spectroscopy of magainin-functionalized interdigitated microelectrode array, sensitivity measurements; assay type: binding; conditions: E. coli O157:H7 10^7 CFU/mL; response at 10 Hz
Protocol: FIG. 2 schematically outlines the sensing platform. AMPs are first immobilized on microfabricated interdigitated gold electrodes, anode 10 and cathode 12 (FIG. 2A). Magainin I was acquired with an additional cysteine residue at the C-terminus (FIG. 2B), allowing for facile and site specific covalent attachment to the gold electrodes. Next, heat-killed bacterial cells were injected and incubated with the AMP-modified electrodes. If the bacteria are recognized by the AMPs, binding will occur (FIG. 2C), leading to dielectric property changes which can be monitored via a spectrum analyzer. The impedance was measured over a frequency range of 10 Hz to 100 kHz.
Sensitivity of microbial detection is a key determinant for utility of the biosensor. To this end, the sensitivity of the magainin-functionalized microelectrode array in detecting bacterial cells was determined using impedance spectroscopy. […] A “blank” device with no immobilized AMPs was also tested for comparison. […] As the frequency increases, the contribution to the impedance from the bacterial cells decreases, leaving only the dielectric relaxation of small dipoles including water molecules in the buffer solution to affect the measured impedance. FIG. 3B depicts the impedance change at the fixed frequency of 10 Hz. […]

Salmonella typhimurium = assay: Selectivity of AMP-functionalized biosensor, pathogenic E. coli relative to Salmonella; assay type: binding; conditions: 10^7 CFU/mL
Protocol: (§1) As a next step, the selectivity of the AMP-functionalized biosensors toward various bacterial species was determined. Specifically, the binding behavior of AMPs was probed toward: 1) Gram-negative pathogenic E. coli O157:H7, 2) the non-pathogenic E. coli strain ATCC 35218, 3) Gram-negative pathogenic Salmonella typhimurium, and Listeria monocytogenes, a Gram-positive pathogen. Collectively, these studies elucidate the matrix of selectivity as it depends on Gram-negative vs. Gram-positive species, and pathogenic vs. non-pathogenic strains. […]
(§2) Stock solutions of propidium iodide (PI), nucleic acid stain (Molecular probes, Eugene, Oreg.) were made from solid form by dissolving PI (MW=668.4) in deionized water at 1 mg/mL (1.5 mM) and stored at 4° C., protected from light. […] The binding pattern of the different bacterial cells was imaged using a Zeiss axiovert inverted microscope and recorded with a Zeiss axiocam digital camera. Surface density of the bound bacterial cells was analyzed and plotted using imageJ software from NIH.
(§3) Dielectric property changes due to AMP-bacteria interactions were probed using a Fast-Fourier Transform (FFT) spectrum analyzer. […] For real-time measurements, the impedance vs. time data was recorded while buffer solutions or different dilutions of bacterial solutions flowed through the microfluidic channel. […]

pathogenic E. coli cells = assay: Real-time detection in microfluidic flow cell, impedance response; assay type: binding; conditions: flow rate 5 μL/min
Protocol: To simulate the use of the AMP microelectrodes in everyday applications, such as direct water sampling, the biosensor response tested to perform in real time, as shown in FIG. 8. First, a microfluidic cell was bonded to the interdigitated biosensor chip (FIG. 8A), such that the electrodes were perpendicular to the direction of the sample flow (FIG. 8B). Next, fluid was injected using a syringe pump connected to the inlet port, and allowed to flow through to the outlet port, at a flow rate of 100 μL/min. The flow cell was first flushed with buffer to establish a baseline. Various dilutions (10^4-10^7 CFU/mL) of pathogenic E. coli cells in PBS were then injected to the channel at a reduced flow rate of 5 μL/min for 30 min. […] Simultaneously, the impedance response was continuously monitored during the sample flow-through process (FIG. 8D). […] This difference between detection in flowing and static water sample has also been reported in fluorescent based assays. This difference is attributed to the opposing effects of shear and mixing on the binding kinetics.
Interdigitated capacitive electrodes were microfabricated on 4″ p-type silicon wafers (boron-doped, <100>, 10-16 Ω-cm, 550 μm thick). A 1 μm thick silicon dioxide layer was deposited on the wafer by plasma enhanced chemical vapor deposition (PECVD) to form electrical insulation between the Si substrate and the capacitive electrodes. S1813 photoresist was patterned using photolithography, followed by electron-beam evaporation of 10 nm Ti and 300 nm Au under high vacuum conditions. The titanium layer helps to provide adhesion of the Au to the SiO2. The IMA was then finally developed by lift-off patterning of the metallic layer in acetone with ultrasonic activation. […]
as §3

Listeria monocytogenes = assay: Selectivity of AMP-functionalized biosensor (impedance at 10 Hz, fluorescent microscopy), Gram-negative pathogens relative to Listeria; assay type: binding; conditions: all 10^7 CFU/mL
Protocol: as §1, §2, §3

Staphylococcus aureus = conditions: cited from earlier work
[1] = tested on: methicillin resistant strains of S. aureus; conditions: cited from earlier work
[2] = tested on: E. coli O157:H7 bacterial cell; assay: Single bacterium detection on graphene sensors functionalized with antimicrobial peptide, simultaneous resistance and optical data; assay type: binding; conditions: compared to non-functionalized graphene
Excerpt: Simultaneous collection of electrical and fluorescence data from the graphene sensors in the presence of fluorescently labeled E. coli cells clearly indicate that the change in the resistance recorded corresponds to the binding and unbinding of the bacterial cell from the graphene surface. The resistance of the graphene sensor remains at the baseline value until the bacterial cell diffuses to the sensor surface and drops down by approximately 0.6 percentage of the original, once the bacterial cell binds to the graphene surface.
The resistance of the sensor decreases from the baseline value up on the binding of the negatively charged bacterial cell and returns back to the initial value up on unbinding, indicating a p-type behavior of the graphene transducer. […] In order to determine the effect of the immobilized AMPs on the binding/unbinding properties simultaneous resistance and optical data were recorded on graphene sensors functionalized with antimicrobial peptides. […]
Electrical measurements for the detection of single bacteria binding measurements were performed with a lock-in detection system using Stanford Research Systems 810 DSP lock-in amplifier. […] The resistance of the graphene sensor was monitored continuously in the presence of analyte sample of various dilutions of bacterial cells. […]

Helicobacter pylori = conditions: cited from earlier work
Escherichia coli = conditions: cited from earlier work

| Substance | response of the biosensor towards target cells with increasing concentration of immobilized magainin (E. coli O157:H7 cells) | response for pathogenic E. coli relative to Salmonella (Salmonella typhimurium) | time to measurable response relative to the control sample, all samples (pathogenic E. coli cells; 10^4-10^7 CFU/mL in PBS) [min] | time to saturation of responses (pathogenic E. coli cells; 10^4-10^7 CFU/mL in PBS) | time to response, highest concentration sample (pathogenic E. coli cells) [s] | impedance difference, pathogenic Gram-negative E. coli and Salmonella relative to Gram-positive Listeria (Listeria monocytogenes) | MIC (Staphylococcus aureus) [µg/mL] | antimicrobial activity [1] | effect of immobilized peptide on unbinding of bacterial cells [2] | MIC (Helicobacter pylori) [µg/mL] | MIC (Escherichia coli) [µg/mL] |
| --- | --- | --- | --- | --- | --- | --- | --- | --- | --- | --- | --- |
| GIGKFLHSAGKFGKAFVGEIMKS [magainin I] | increase monotonically | slightly larger response | ≤ 5 | ca. 20 min | ≤ 30 | two | – | – | – | – | – |
| Odorranin-HP [O-HP] | – | – | – | – | – | – | 5 | exert antimicrobial activity | slows the unbinding kinetics | 20 | 30 |
